Like-named read-outs stand apart in the source and are kept apart here. Each block holds one compound with its values, some of them ahead of it.
Legend:
[1] = biological target: T1, hPARL (presenilin-associated rhomboid-like protein, mitochondrial) (Homo sapiens, UniProt Q9H300); test: competitive ABPP, dose-response; format: biochemical
T1 construct: gene PARL; hPARL in HEK293T membrane proteome

human RHBDL4 (hRHBDL4) [2] = biological target: T2, human RHBDL4 (hRHBDL4) (Homo sapiens, UniProt Q8TEB9); test: competitive ABPP with FP-Rh, dose-response; format: biochemical; parameters: gene RHBDD1
T2 sequence (Q8TEB9 1-315): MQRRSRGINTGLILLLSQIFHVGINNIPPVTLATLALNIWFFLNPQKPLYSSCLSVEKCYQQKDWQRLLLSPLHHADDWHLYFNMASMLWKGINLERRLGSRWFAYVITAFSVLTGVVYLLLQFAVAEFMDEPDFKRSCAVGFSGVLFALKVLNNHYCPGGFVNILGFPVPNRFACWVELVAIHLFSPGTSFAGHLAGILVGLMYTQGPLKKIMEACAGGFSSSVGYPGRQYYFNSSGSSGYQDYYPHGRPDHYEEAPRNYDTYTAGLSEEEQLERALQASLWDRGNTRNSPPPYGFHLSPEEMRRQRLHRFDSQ

[3] = biological target: T1, hPARL (presenilin-associated rhomboid-like protein, mitochondrial); test: competitive ABPP, dose-response; format: cell-based
human RHBDL4 (hRHBDL4) [4] = biological target: T2, human RHBDL4 (hRHBDL4); test: competitive ABPP with FP-Rh at […]; format: biochemical; parameters: gene RHBDD1; hRHBDL4 in HEK293T membrane proteome

T1 sequence (Q9H300 53-379): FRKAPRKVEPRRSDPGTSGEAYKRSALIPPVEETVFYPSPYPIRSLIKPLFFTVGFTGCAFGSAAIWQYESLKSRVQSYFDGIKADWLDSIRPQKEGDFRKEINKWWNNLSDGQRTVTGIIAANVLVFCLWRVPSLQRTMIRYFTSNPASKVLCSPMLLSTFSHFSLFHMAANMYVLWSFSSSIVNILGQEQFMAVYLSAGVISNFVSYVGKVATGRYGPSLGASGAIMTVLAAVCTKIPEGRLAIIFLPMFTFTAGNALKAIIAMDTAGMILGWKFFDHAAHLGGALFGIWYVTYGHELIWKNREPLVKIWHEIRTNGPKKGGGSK

SMILES: O=c1oc(Cl)c(Cl)c2ccccc12 [3,4-DCI]
- IC50 [1]: 25 µM
- IC50 (human RHBDL4 (hRHBDL4) [2]): 1.1 µM

- IC50 [3]: low micromolar
SMILES: O=C1CCC(=O)N1S(=O)(=O)c1ccccc1 [WHP3A]

- competitive ABPP with FP-Rh at 100 μM (human RHBDL4 (hRHBDL4) [4]): nearly complete competition at 100
SMILES: O=C(OCN1C(=O)c2ccccc2S1(=O)=O)c1ccccc1Cl [BSc5195]
